US20190343828A1, “CAMPTOTHECIN PEPTIDE CONJUGATES” (SEATTLE GENETICS, INC., priority 2018, published 2019)
pIC50: −log10 of the molar value.

Key:
[1] = tested on: renal carcinoma cells (786-O); assay: In vitro cytotoxicity, CellTiter-Glo 96 h, 786-O; conditions: Homo sapiens, 786-0, read-out: Cytotoxic potency (IC50 class), 786-O
Experimental: (§2) In vitro potency was assessed on multiple cancer cell lines. All cell lines were authenticated by STR profiling at IDEXX Bioresearch and cultured for no more than 2 months after resuscitation. Cells cultured in log-phase growth were seeded for 24 hours in 96-well plates containing 150 μl RPMI 1640 supplemented with 20% FBS. Serial dilutions of antibody-drug conjugates in cell culture media were prepared at 4× working concentrations, and 50 μl of each dilution was added to the 96-well plates. Following addition of test articles, cells were incubated with test articles for 4 days at 37° C. After 96 hours, growth inhibition was assessed by CellTiter-Glo® (Promega, Madison, Wis.) and luminescence was measured on a plate reader.
(§3) Cell viability was determined by CellTiter-Glo staining after 96 h exposure to ADC.

[2] = tested on: multiple drug resistant acute promyelocytic leukemia cells (HL-60/RV); assay: In vitro cytotoxicity, CellTiter-Glo 96 h, HL60/RV; conditions: Homo sapiens, HL-60, read-out: Cytotoxic potency (IC50 class), HL60/RV
[3] = tested on: acute promyelocytic leukemia cells (HL-60); assay: In vitro cytotoxicity, CellTiter-Glo 96 h, HL-60; conditions: Homo sapiens, HL-60, read-out: Cytotoxic potency (IC50 class), HL-60
Experimental: as §2
(§4) Cell viability was determined by CellTiter-Glo staining after 96 h exposure to ADC. […] Ag1 is an antibody targeting a ubiquitous and readily internalizable antigen on cancer cells, Ag2 is cAC10 antibody targeting CD30(+) cancer cells, Ag3 is h1F6 antibody targeting CD70(+) cancer cells, Ag4 is hMEM102 antibody targeting CD48(+) cancer cells, Ag5 is h20F3 antibody targeting NTB-A expressing cancer cells, and h00 is a non-binding control antibody.

[4] = tested on: multiple myeloma cells (MM.1R); assay: In vitro cytotoxicity, CellTiter-Glo 96 h, MM.1R; conditions: read-out: Cytotoxic potency (IC50 class), MM.1R
[5] = tested on: B-lymphocyte cancer cells (U266); assay: In vitro cytotoxicity, CellTiter-Glo 96 h, U266; conditions: Homo sapiens, U-266, read-out: Cytotoxic potency as free drug, IC50, U266
Experimental: as §2, §4

[6] = tested on: Burkitt's lymphoma cells (Ramos); assay: In vitro cytotoxicity, CellTiter-Glo 96 h, Ramos; conditions: Homo sapiens, read-out: Cytotoxic potency as free drug, IC50, Ramos
Experimental: as §2, §3

[7] = tested on: Hodgkin's lymphoma cells (L540cy); assay: In vitro cytotoxicity, CellTiter-Glo 96 h, L540cy; conditions: read-out: Cytotoxic potency (IC50 class), L540cy
Experimental: as §2, §3

[8] = tested on: B-lymphocyte cancer cells (SU-DHL-4); assay: In vitro cytotoxicity, CellTiter-Glo 96 h, SU-DHL-4; conditions: Homo sapiens, SU-DHL-4, read-out: Cytotoxic potency as free drug, IC50, SU-DHL-4
Experimental: as §2, §4

[9] = tested on: acute myeloid leukemia cells (MOLM13); assay: In vitro cytotoxicity, CellTiter-Glo 96 h, MOLM13; conditions: Homo sapiens, MOLM-13, read-out: Cytotoxic potency as free drug, IC50, MOLM13
Experimental: as §2, §3

[10] = tested on: pancreatic cancer cells (BxPC3); assay: In vitro cytotoxicity, CellTiter-Glo 96 h, BxPC3; conditions: Homo sapiens, BXPC-3, read-out: Cytotoxic potency (IC50 class), BxPC3
[11] = tested on: melanoma cells (SK-MEL-5); assay: In vitro cytotoxicity, CellTiter-Glo 96 h, SK-MEL-5; conditions: Homo sapiens, SK-MEL-5, read-out: Cytotoxic potency as free drug, IC50, SK-MEL-5
Experimental: as §2, §4

[12] = tested on: CD30/MDR+ DEL-BVR cell line (DEL brentuximab vedotin resistant); assay: In vitro cytotoxicity, CellTiter-Glo 96 h, DEL-BVR; assay type: cell-based; conditions: Table 2, CD30/MDR+ DEL-BVR
Experimental: (§1) The parental DEL lymphoma cell line was cultured in the presence of brentuximab vedotin to induce over-expression of the MDR phenotype, resulting in the DEL brentuximab vedotin resistant line (DEL-BVR). Brentuximab vedotin, which is Ag2-vc-MMAE (DAR=4) was included as a control. Ex_4-1 refers to MP-PEG4-VKG-7-MAD-MDCPT.

[13] = tested on: CD30+ parental DEL lymphoma cell line; assay: In vitro cytotoxicity, CellTiter-Glo 96 h, DEL; assay type: cell-based; conditions: Table 2, CD30+ parental DEL
Experimental: as §1

[14] = 1000 ng/mL, relative to untreated cells
[15] = DAR in parenthesis of label, 96 h

CC[C@@]1(O)C(=O)OCc2c1cc1n(c2=O)Cc2c-1nc1cc3c(cc1c2CO)OCO3 [Compound 8c]
pIC50 [1]: 8.00 to 9.00 | pIC50 [2]: 8.00 to 9.00 | pIC50 [3]: 7.00 to 8.00 | pIC50 [4]: 8.00 to 9.00 | pIC50 [5]: 8.00 to 9.00 | pIC50 [6]: 9.00 to 10.00 | pIC50 [7]: 9.00 to 10.00 | pIC50 [8]: 9.00 to 10.00 | pIC50 [9]: 8.00 to 9.00 | pIC50 [10]: 8.00 to 9.00 | pIC50 [11]: 8.00 to 9.00

CCc1c2c(nc3ccc(O)cc13)-c1cc3c(c(=O)n1C2)COC(=O)[C@]3(O)CC [Compound 8d]
pIC50 [1]: 8.00 to 9.00 | pIC50 [2]: 7.00 to 8.00 | pIC50 [3]: 8.00 to 9.00 | pIC50 [4]: 8.00 to 9.00 | pIC50 [5]: 8.00 to 9.00 | pIC50 [6]: 7.00 to 8.00 | pIC50 [7]: 7.00 to 8.00 | pIC50 [8]: 8.00 to 9.00 | pIC50 [9]: 8.00 to 9.00 | pIC50 [10]: 8.00 to 9.00 | pIC50 [11]: 8.00 to 9.00

Brentuximab vedotin [Ag2-vcMMAE (4), reference compound]
percent cells remaining at highest concentration tested, DEL-BVR [12, 14]: (93) percent | IC50, DEL-BVR [12, 15]: >1 µg/mL | percent cells remaining at highest concentration tested, DEL [13, 14]: (1) percent | IC50, DEL [13, 15]: 0.0005 µg/mL
